Structures can show the parent of a compound that is named as a salt.
Assays:
ACTA2 mRNA [1] = assay: qRT-PCR of ACTA2 mRNA in TGF-β1-treated human renal fibroblasts; assay type: cell-based; conditions: human renal fibroblasts (HRFs); 10 and 50 µM; TGF-β1 (5 ng/mL); 48 hours; FIG. 3
Method: (§1) Here, to confirm the degree of fibrosis, ACTA2 or COL1A1 mRNA, which can express α-SMA or collagen type 1, was used as an indicator. α-SMA is a marker for activated myofibroblasts, which are the main effector cells of fibrosis, and myofibroblasts with increased α-SMA expression are known to cause fibrosis by producing a fibrotic protein such as collagen type 1.
(§2) Specifically, human renal fibroblasts (HRFs) were seeded, and cultured for 24 hours under a nutrient-deficient condition for effective cell activation. Afterward, the cells were treated with the compounds (Compounds 51 and 41) according to the present invention, together with TGF-β1 (5 ng/mL) to induce fibrosis, at 10 and 50 µM for 48 hours, respectively, and then cultured to extract RNA therefrom. The RNA was used to perform qRT-PCR. From the experimental results, the mRNA expression levels of ACTA2 and COL1A1 were confirmed, thereby verifying the therapeutic effects of the compounds.

F-actin = assay: inhibition of F-actin formation (rhodamine phalloidin staining) in TGF-β1-treated MRC-5 cells; assay type: cell-based, human; conditions: compound 10 µM, TGF-β1 (5 ng/mL), 72 hours, FIG. 1
Method: In this experimental example, 2 hours after human lung-derived fibroblasts (MRC-5 cells) were treated with Compound 41 (10 µM) or Compound 51 (10 µM) according to the present invention, or DMSO, dissolved in 0.5% FBS-containing serum, TGF-β1 (5 ng/mL) was treated to induce fibrosis. After 72 hours, the cells were immobilized with a 2% paraformaldehyde solution for 10 minutes, and to impart cell membrane permeability, a 0.1% Triton X-100 solution was treated for 10 minutes, and a 1% bovine serum albumin (BSA) solution was treated to prevent non-specific binding. For immunostaining, anti-GAPDH (BIO-RAD) was first treated as a primary antibody, and Alexa Fluor™ Plus 488 for GAPDH labeling was used as a secondary antibody. For staining of an actin cytoskeleton, particularly, F-actin, rhodamine phalloidin (Cytoskeleton) was used to confirm the increase and decrease in F-actin caused by the compounds. The immunohistochemical experimental results were confirmed with a STELLARIS 5 confocal microscope (Leica), F-actin stained with rhodamine phalloidin was standardized with GAPDH labeled with Alexa Fluor™ Plus 488 for quantification.

COL1A1 mRNA = assay: qRT-PCR of COL1A1 mRNA in TGF-β1-treated human renal fibroblasts; assay type: cell-based; conditions: human renal fibroblasts (HRFs); 10 and 50 µM; TGF-β1 (5 ng/mL); 48 hours; FIG. 3
Method: as §1, §2

α-SMA = assay: in vitro α-SMA expression inhibition (immunostaining, confocal microscopy) in TGF-β1-treated MRC-5 cells; assay type: cell-based, human; conditions: TGF-β1 (5 ng/mL), 72 hours, standardized using GAPDH
Description: When scars are generated in tissue, fibroblasts undergo fibroblast-to-myofibroblast transition (FMT), and the resulting myofibroblasts produce the extracellular matrix, leading to tissue fibrosis. α-SMA is a representative biomarker of myofibroblasts, and its expression greatly increases as FMT progresses. Accordingly, through the evaluation of α-SMA expression inhibitory activity, the efficacy of the compounds in inhibiting fibrosis may be evaluated. Therefore, the inhibitory activity of the compounds of the present invention on α-SMA expression was evaluated in cells. To more accurately evaluate the inhibition of α-SMA expression, IC50 values were determined by treating human lung-derived fibroblasts (MRC-5 cells) with the compounds of the present invention in a concentration-dependent manner.
Specifically, 2 hours after the MRC-5 cells were treated with DMSO or compounds dissolved in serum containing 0.5% fetal bovine serum (FBS) in a concentration-dependent manner, fibrosis was induced by treatment with TGF-β1 (5 ng/mL). After 72 hours, the cells were immobilized with a 2% paraformaldehyde solution for 10 minutes, and to impart cell membrane permeability, a 0.1% Triton X-100 solution was treated for 10 minutes, and a 1% bovine serum albumin (BSA) solution was treated to prevent non-specific binding. For immunostaining, anti-GAPDH (BIO-RAD) was first treated as a primary antibody, and Alexa Fluor™ Plus 555 for GAPDH labeling was used as a secondary antibody. For α-SMA staining, an FITC fluorescence-tagged α-SMA primary antibody was used, and thus the increase and decrease in α-SMA caused by the compounds were evaluated. The immunohistochemical experimental results were confirmed with a STELLARIS 5 confocal microscope (Leica), and FITC-stained α-SMA was standardized using GAPDH labeled with Alexa FluorTM Plus 555 for quantification. The IC50 of the compounds according to the present invention was calculated through statistical analysis (linear mixed effects model). […]

ACTA2 mRNA [2] = assay: qRT-PCR of ACTA2 mRNA in TGF-β1-treated human hepatic stellate cells; assay type: cell-based; conditions: human hepatic stellate cells (HHSCs); 10 and 50 µM; TGF-β1 (5 ng/mL); 48 hours; FIG. 2
Method: as §1, with “mRNA that” for “mRNA, which”, “1” for “1,”, “of” for “for”, “COL1A1.” for “collagen type 1.”
as §2, with “hepatic stellate cells (HHSCs)” for “renal fibroblasts (HRFs)”

| Compound | IC50 (α-SMA; Homo sapiens) | other results |
| --- | --- | --- |
| CC(C)CN[C@H]1CCN(C(=O)N2CCN(Cc3ccccn3)c3ccccc32)C1.O=C(O)/C=C/C(=O)O [Compound 51, (S)-(3-(isobutylamino)pyrrolidin-1-yl)(4-(pyridin-2-ylmethyl)-3,4-dihydroquinoxaline-1(2H)-yl)methanone fumaric acid salt] | < 1 µM | ACTA2 mRNA expression (ACTA2 mRNA [1]): effectively inhibit the mRNA expression; intracellular F-actin formation (F-actin): reduced to a level similar to that of the group not treated with TGF-β1; COL1A1 mRNA expression (COL1A1 mRNA): effectively inhibit the mRNA expression; ACTA2 mRNA expression (ACTA2 mRNA [2]): effectively inhibit the mRNA expression |
| N[C@H]1CCN(C(=O)N2CCN(Cc3ccc(F)cc3)c3ccccc32)C1.O=C(O)/C=C/C(=O)O [Compound 41, (S)-(3-aminopyrrolidin-1-yl)(4-(4-fluorobenzyl)-3,4-dihydroquinoxaline-1(2H)-yl)methanone fumaric acid salt] | < 1 µM | ACTA2 mRNA expression (ACTA2 mRNA [1]): effectively inhibit the mRNA expression; intracellular F-actin formation (F-actin): reduced to a level similar to that of the group not treated with TGF-β1; COL1A1 mRNA expression (COL1A1 mRNA): effectively inhibit the mRNA expression; ACTA2 mRNA expression (ACTA2 mRNA [2]): effectively inhibit the mRNA expression |
| N[C@H]1CCN(C(=O)N2CCN(Cc3ccccc3F)c3ccccc32)C1 [Compound 37, (S)-(3-aminopyrrolidin-1-yl)(4-(2-fluorobenzyl)-3,4-dihydroquinoxaline-1(2H)-yl)methanone] | 1 to 10 µM |  |
| CC(C)N1CC[C@H](NC(=O)N2CCN(c3ccccn3)c3ccccc32)C1 [Compound 11, (S)-N-(1-isopropylpyrrolidin-3-yl)-4-(pyridin-2-yl)-3,4-dihydroquinoxaline-1(2H)-carboxamide] | 1 to 10 µM |  |
| (S)-N-(1-isobutylpyrrolidin-3-yl)-4-(pyrazin-2-ylmethyl)-3,4-dihydroquinoxaline-1(2H)-carboxamide [Compound 44] |  | IC50 (α-SMA): ≤ 30 µM |
| O=C(NCC1CC1)N1CCN(c2ccc(F)cc2)c2cc(F)ccc21 [Compound 3, N-(cyclopropylmethyl)-6-fluoro-4-(4-fluorophenyl)-3,4-dihydroquinoxaline-1(2H)-carboxamide] | 1 to 10 µM |  |
| CN[C@H]1CCN(C(=O)N2CCN(Cc3ccccc3F)c3ccccc32)C1 [Compound 38, (S)-(4-(2-fluorobenzyl)-3,4-dihydroquinoxaline-1(2H)-yl)(3-(methylamino)pyrrolidin-1-yl)methanone] | 1 to 10 µM |  |
| O=C(NC1CCNCC1)N1CCN(Cc2ccccn2)c2ccccc21 [Compound 53, N-(piperidin-4-yl)-4-(pyridin-2-ylmethyl)-3,4-dihydroquinoxaline-1(2H)-carboxamide] | 1 to 10 µM |  |
| O=C(NC[C@H]1CCCN1)N1CCN(Cc2ccccn2)c2ccccc21 [Compound 52, (R)-4-(pyridin-2-ylmethyl)-N-(pyrrolidin-2-ylmethyl)-3,4-dihydroquinoxaline-1(2H)-carboxamide] | 1 to 10 µM |  |
| O=C(NCC1CCNCC1)N1CCN(Cc2ccc(F)cn2)c2ccccc21 [Compound 66, 4-((5-fluoropyridine-2-yl)methyl)-N-(piperidin-4-ylmethyl)-3,4-dihydroquinoxaline-1(2H)-carboxamide oxalic acid salt] | < 1 µM |  |
| O=C(NC[C@H]1CCCN1)N1CCN(c2ccccn2)c2ccccc21 [Compound 15, (R)-4-(pyridin-2-yl)-N-(pyrrolidin-2-ylmethyl)-3,4-dihydroquinoxaline-1(2H)-carboxamide] | < 1 µM |  |
| CN1CCC(CNC(=O)N2CCN(Cc3ncccc3F)c3ccccc32)CC1 [Compound 69, 4-((3-fluoropyridin-2-yl)methyl)-N-((1-methylpiperidin-4-yl)methyl)-3,4-dihydroquinoxaline-1(2H)-carboxamide] | 1 to 10 µM |  |
| CC(C)N[C@H]1CCN(C(=O)N2CCN(Cc3ccccn3)c3ccccc32)C1 [Compound 47, (S)-(3-(isopropylamino)pyrrolidin-1-yl)(4-(pyridin-2-ylmethyl)-3,4-dihydroquinoxaline-1(2H)-yl)methanone] | ≤ 30 µM |  |
| CN(C)[C@H]1CCN(C(=O)N2CCN(Cc3ccccn3)c3ccccc32)C1 [Compound 46, (S)-(3-(dimethylamino)pyrrolidin-1-yl)(4-(pyridin-2-ylmethyl)-3,4-dihydroquinoxaline-1(2H)-yl)methanone] | ≤ 30 µM |  |
